Source: PMC3983201, “6-Methoxyflavanones as Bitter Taste Receptor Blockers for hTAS2R39” (PLoS ONE, 2014)
Read-outs that look alike come from different tables or passages of the source.

Key:
[1] = molecular target: T1, hTAS2R16 (Homo sapiens, UniProt Q9NYV7); test: Calcium assay of hTAS2R16 activation/inhibition (salicin as agonist); assay type: cell-based; conditions: for inhibition of salicin response on hTAS2R16: 10 mM salicin, simultaneous and stepwise addition
T1 construct: expressed in transfected cells; host or cells: induced versus non-induced cells
T1 sequence (Q9NYV7 1-291): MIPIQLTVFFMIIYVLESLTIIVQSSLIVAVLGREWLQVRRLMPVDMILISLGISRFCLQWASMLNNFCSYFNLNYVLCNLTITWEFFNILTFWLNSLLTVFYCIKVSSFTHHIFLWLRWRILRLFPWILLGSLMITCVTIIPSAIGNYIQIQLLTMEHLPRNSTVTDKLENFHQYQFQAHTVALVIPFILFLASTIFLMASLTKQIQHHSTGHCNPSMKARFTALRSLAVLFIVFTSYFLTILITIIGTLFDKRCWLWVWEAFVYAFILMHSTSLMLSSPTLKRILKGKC
Protocol: Cells were seeded into poly-L-lysine-coated (Sigma-Aldrich) 96-well plates (black wall, clear bottom, Greiner bio-one, Frickenhausen, Germany) at a density of 7*10^3 cells in 100 μL/well and cultured for 24 h. Transcription of the receptors was induced by adding 0.25 μg/mL doxycycline (Sigma-Aldrich). Cells were induced for 24 h and then loaded with the calcium-sensitive fluorescent dye Fluo-4-AM (2.5 μM, Invitrogen), which was dissolved in Tyrode's buffer containing 5% (v/v) tetracycline-free FBS (Lonza). One hour after loading, cells were washed with Tyrode's buffer and taken up in Tyrode's buffer. Stock solutions of test compounds were prepared in DMSO and diluted to the appropriate concentration in Tyrode's buffer, not exceeding a DMSO concentration of 1% (v/v).
Receptor activation or inhibition was measured via intracellular Ca^2+ release in a FlexStation II 384 or FlexStation III (Molecular Devices Corporation, Sunnyvale, CA, USA) by measuring fluorescence (excitation 485 nm/emission 520 nm) for either 90 s or 240 s at 37°C. Two methods of compound administration were applied: simultaneous and stepwise addition of potential antagonist and agonist. The first 17 s before compound addition were used for baseline determination. For the simultaneous method, agonist and potential antagonist were pre-mixed, administered after 17 s, and fluorescence was measured for in total 90 s. For the stepwise method, after 17 s, the potential antagonist was added, fluorescence was measured until 120 s, and after 120 s the agonist was added and measured for another 120 s, in total 240 s. […] Each experiment was performed at least in duplicate in separate experiments (as indicated for each figure).
Screening for hTAS2R39 inhibition by flavanones was performed with simultaneous application of agonist (200 μM ECG) and putative antagonist (250 μM flavanone). Inhibition was indicated when [drawing 1] . In case of indicated inhibition, flavanones were applied at different concentrations, in order to test for dose-dependent inhibition, at the EC80 concentration of the agonist. Another agonist of hTAS2R39, denatonium benzoate, was used in inhibition experiments at 1.7 mM (EC80). hTAS2R14 inhibition was tested with 640 μM ECG or 70 μM genistein as agonists, representing their respective EC80 concentrations. To investigate the specificity of flavanones for inhibition of hTAS2R39 and hTAS2R14, another bitter taste receptor, hTAS2R16 (not known to be activated by flavonoids), was used in inhibition experiments ( File S3 ) towards its agonist salicin.
SUPPORTING INFORMATION to the article “6-Methoxyflavanones as Bitter Taste Receptor Blockers for hTAS2R39” by Roland, WSU; Gouka, RJ; Gruppen, H; Driesse, M; van Buren, L; Smit, G; Vincken, J-P File S3 Investigation of identified inhibitors on hTAS2R16.
To investigate whether the hTAS2R39 inhibitors 6,3’-dimethoxyflavanone (3), 4’- fluoro-6-methoxyflavanone (6), and 6-methoxyflavanone (11) were able to inhibit a bitter receptor not known for flavonoid activation, hTAS2R16 was selected for inhibition experiments. Measuring dose-response curves of the hTAS2R16 agonist […]
Figure S3. Inhibition of response of 10 mM salicin (---) on hTAS2R16 (induced (●), non-induced (○)) by 4’-fluoro-6-methoxyflavanone (6) after simultaneous addition (A) and stepwise addition (B), by 6,3’-dimethoxyflavanone (3) after simultaneous addition (C) and stepwise addition (D), and by 6-methoxyflavanone (11) after simultaneous addition (E) and stepwise addition (F). […]

[2] = molecular target: T2, hTAS2R39 (Homo sapiens, UniProt P59534); test: Calcium assay of hTAS2R39 activation/inhibition in HEK293 T-Rex Flp-In cells; assay type: cell-based
T2 construct: first 45 amino acids of rat somatostatin receptor type 3 (sst3 membrane-targeting tag) (N); expressed in transfected cells; host or cells: HEK293 T-Rex Flp-In cells stably expressing Gα16-gust44; receptor in pcDNA5/FRT, induced with doxycycline
T2 sequence (P59534 1-338): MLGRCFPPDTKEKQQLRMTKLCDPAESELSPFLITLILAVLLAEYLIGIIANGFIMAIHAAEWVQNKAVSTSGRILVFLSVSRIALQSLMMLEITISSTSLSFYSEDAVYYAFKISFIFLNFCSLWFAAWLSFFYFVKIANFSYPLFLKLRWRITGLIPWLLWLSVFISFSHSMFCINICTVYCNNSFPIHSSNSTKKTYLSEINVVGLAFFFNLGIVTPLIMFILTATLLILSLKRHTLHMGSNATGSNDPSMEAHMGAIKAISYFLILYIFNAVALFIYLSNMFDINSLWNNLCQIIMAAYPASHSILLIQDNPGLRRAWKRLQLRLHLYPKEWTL

SMILES: COc1ccc2c(c1)C(=O)CC(c1ccccc1)O2 (centres unmarked) [Compound 11, 6-Methoxyflavanone]
- inhibition of salicin response on hTAS2R16 [1]: no inhibition

SMILES: COc1ccc2c(c1)C(=O)CC(c1ccc(F)cc1)O2 (centres unmarked) [Compound 6, 4′-Fluoro-6-methoxyflavanone]
- reversibility of inhibition (washout experiment) ([2]; 200 μM ECG, 100 μM antagonist, washed with Tyrode's buffer, stimulated again): reversible
- maximal signal reduction ([2]; 200 μM ECG, simultaneous addition, reached at 63 μM): 65%
- receptor blocking ([2]; 200 μM ECG, stepwise addition (applied prior to ECG)): 100%
- maximal signal reduction ([2]; 1.7 mM denatonium benzoate, simultaneous addition, up to 63 μM): 58%
- receptor blocking ([2]; 1.7 mM denatonium benzoate, stepwise addition): 100%
- mechanism of antagonism on hTAS2R39 ([2]; ECG dose-response curves at various antagonist concentrations and wash-out experiments): reversible insurmountable antagonism
- Threshold, Simultaneous ([2]; inhibition of hTAS2R39 response to 200 μM ECG, simultaneous addition, n.b. = no blocking): 8 µM
- IC50 ([2]; inhibition of hTAS2R39 response to 200 μM ECG, simultaneous addition, n.b. = no blocking, read-out: IC50, Simultaneous): 32 ± 7 µM
- Threshold, Stepwise ([2]; inhibition of hTAS2R39 response to 200 μM ECG, stepwise addition): 63 µM
- IC50 ([2]; inhibition of hTAS2R39 response to 200 μM ECG, stepwise addition, read-out: IC50, Stepwise): 102 ± 9 µM
- Threshold, Simultaneous ([2]; inhibition of hTAS2R39 response to 1.7 mM denatonium benzoate, simultaneous addition, n.b. = no blocking): 8 µM
- IC50 ([2]; inhibition of hTAS2R39 response to 1.7 mM denatonium benzoate, simultaneous addition, n.b. = no blocking, read-out: IC50, Simultaneous): 22 ± 12 µM
- Threshold, Stepwise ([2]; inhibition of hTAS2R39 response to 1.7 mM denatonium benzoate, stepwise addition): 32 µM
- IC50 ([2]; inhibition of hTAS2R39 response to 1.7 mM denatonium benzoate, stepwise addition, read-out: IC50, Stepwise): 55 ± 3 µM
- significance of the inhibitory effect at screening concentrations ([2]; simultaneous application of 200 μM ECG and 250 μM flavanone): significant
- reduction of ECG response on hTAS2R39 (screening for inhibition) ([2]; simultaneous application of 200 μM ECG and 250 μM flavanone, inhibition when response ratio <1): showed reduction of ECG responses
- inhibition of salicin response on hTAS2R16 [1]: no inhibition

SMILES: CCCN(CCC)S(=O)(=O)c1ccc(C(=O)O)cc1 [probenecid, p-(dipropylsulfamyl)benzoic acid, reference compound]
- inhibition of hTAS2R39 by probenecid in the buffer ([2]; 0.5 mM probenecid in Tyrode's buffer, agonist ECG): did not lead to inhibition
- inhibitory effect of probenecid on hTAS2R16 assay ([1]; 0.5 mM probenecid in Tyrode's buffer and dye loading buffer, agonist salicin): no inhibitory effect
